The subject of series [1] is HIV-1 clinical isolated, characterised by mutations in the RT gene inducing geno-phenotypic resistance to ABC. Briefly: p24 production susceptibility test (ACTG protocol), Table 5. It is filed as cell-based. The note with it: PBMC, ratio to HIV-IIIB. The text has this: (§1) For the phenotype of the nucleosidic, non-nucleosidic and proteases inhibitors was utilised a method which consider the use of human PBMC and the protocol standardised by the AIDS Clinical Trials Group, after verifying the genotype by sequence analysis.
(§2) In order to assay in vitro the susceptibility to chloroquine and hydroxychloroquine of the viral strains, it was used the protocol of the ACTG which is characterised by the measure, of the production of antigen p24 in strongly infected cells.
(§3) The susceptibility of the viral strains to chemotherapics was determined in cell cultures, prepared in 96 wells microplates, using, for the infection, 0.1 MOI.
(§4) The supernatant of the infected cultures (either in absence or in presence of different concentrations of chemotherapic) were tested for the production of p24 after 7 days, using an ELISA test which is commercially available.
(§5) The concentrations of chloroquine and hydroxychloroquine tested ranged from 0.5 to 15 uM. At the same time non-infected cells were incubated with concentrations of chloroquine and hydroxychloroquine ranging from 0 to 50 uM to evaluate the toxicity of the compound.
(§6) After 4 day from the infection, half the cellular medium was replaced with a medium containing the corresponding dilution of chloroquine and hydroxychloroquine. The percentage of inhibition of the HIV replication, induced by chloroquine and hydroxychloroquine, was determined, after 7 day from the infection, comparing the levels of p24 of this cultures and that of the control, infected and not treated with chloroquine and hydroxychloroquine.
(§7) Therefore, the E.C.50 of chloroquine and hydroxychloroquine expresses the concentration of chemotherapic that inhibits the 50% of production of p24 and the values were calculated using linear and non linear regression analysis (the significativity for the non linear regression was R^2>0.95).
(§8) In the same experimental conditions and in the same day, but with similar concentrations of chloroquine and hydroxychloroquine, it was evaluated the vitality of the infect cell cultures, and this was expressed as I.C.50.
(§9) I.C.50 (Inhibitory Concentration) indicates the concentration of the chemotherapic agent inhibiting the vitality of the cell cultures at a rate of 50%, when there is not infection.

Series [2] relates to HIV-1 clinical isolated, characterised by mutations in the RT gene inducing geno-phenotypic resistance to d4T. The experiment in a line: p24 production susceptibility test (ACTG protocol), Table 4. The note with it: PBMC, ratio to HIV-IIIB. It counts as cell-based.
Source text: as §1, §2, §3, §4, §5, §6, §7, §8, §9

Series [3] relates to HIV-1 clinical isolated, characterised by mutations in the protease gene inducing geno-phenotypic resistance to IDV. The experiment in a line: p24 production susceptibility test (ACTG protocol), Table 9. It is filed as cell-based. Particulars: PBMC, ratio to HIV-IIIB.
Source text: as §1, §2, §3, §4, §5, §6, §7, §8, §9

In series [4] the test system is HIV-1 strains geno-phenotypically resistant to EFV. The experiment in a line: p24 production susceptibility test, Table 7, MT-2 cells. It counts as cell-based. The note with it: MT-2, ratio to HIV-IIIB.
Source text: as §1, §2, §3, §4, §5, §6, §7, §8, §9

Series [5] has the same test system. Described as above. It counts as cell-based. Particulars: ratio to HIV-IIIB.
Series [6] has as its system HIV-1 clinical isolated, characterised by mutations in the protease gene inducing geno-phenotypic resistance to SQV. The experiment in a line: p24 production susceptibility test (ACTG protocol), Table 8. It is filed as cell-based. The note with it: PBMC, ratio to HIV-IIIB.
Source text: as §1, §2, §3, §4, §5, §6, §7, §8, §9

Series [7] has as its system HIV-1 clinical isolated, characterised by mutations on the protease gene inducing geno-phenotypic resistance to NFV. Briefly: p24 production susceptibility test (ACTG protocol), Table 10, PBMC. It counts as cell-based. Particulars: ratio to HIV-IIIB.
Source text: as §1, §2, §3, §4, §5, §6, §7, §8, §9

For series [8] the test system is unchanged. Briefly: p24 production susceptibility test, Table 10, H-9 cells. The note with it: H-9, ratio to HIV-IIIB. It counts as cell-based.
Source text: as §1, §2, §3, §4, §5, §6, §7, §8, §9

The test system of series [9] is HIV clinical isolated, characterised by mutations in the RT gene inducing geno-phenotypic resistance to AZT. The experiment in a line: p24 production susceptibility test (ACTG protocol), Table 1. It is filed as cell-based, HIV-1. Particulars: PBMC, ratio to HIV-IIIB.
Source text: as §1, §2, §3, §4, §5, §6, §7, §8, §9

Series [10] has as its system HIV clinical isolated, characterised by mutations in the RT gene inducing geno-phenotypic resistance to ddI. The experiment in a line: p24 production susceptibility test (ACTG protocol), Table 2. It counts as cell-based, HIV-1. The note with it: PBMC, ratio to HIV-IIIB.
Source text: as §1, §2, §3, §4, §5, §6, §7, §8, §9

For a further series, the system named is HIV. The note with it: 16 weeks, cited from earlier work.
Series [11] deals with HIV-1 strains geno-phenotypically resistant to NVP. Briefly: p24 production susceptibility test, Table 6, MT-2 cells. It counts as cell-based. The note with it: MT-2, ratio to HIV-IIIB.
Source text: as §1, §2, §3, §4, §5, §6, §7, §8, §9

Series [12] has the same test system. The series is described as above. It counts as cell-based. Particulars: ratio to HIV-IIIB.

Structures are written as SMILES.

Regarding `Nc1nc(NC2CC2)c2ncn([C@H]3C=C[C@@H](CO)C3)c2n1` [ABC, Abacavir], the “Fen. ABC (fold)” value came to 10X fold in series [1] (Gen. K65R L74V M184V); 40X fold in series [1] (Gen. K65R S68G F77L Y115F Q151M M184V); 10X fold in [1] (Gen. L74V M184F); 10X fold in [1] (Gen. L74V Y115F M184V); 10X fold in series [1] (Gen. M41L D67N M184V L210W T215Y).

With `Cc1cn([C@H]2C=C[C@@H](CO)O2)c(=O)[nH]c1=O` [D4T, Stavudine], the “Fen. D4T (fold)” value in series [2] (Gen. K65R F77L Y115F Q151M M184V) is reported as 40X fold; in [2] (Gen. K65R F116Y Q151M), 40X fold; in [2] (Gen. M41I T69SSS T215Y), 10X fold; in series [2] (Gen. T69SSS T215Y), 10X fold; in series [2] (Gen. V75I F77L F116Y Q151M), 20X fold.

Regarding `CC(C)(C)NC(=O)[C@@H]1CN(Cc2cccnc2)CCN1C[C@@H](O)C[C@@H](Cc1ccccc1)C(=O)N[C@H]1c2ccccc2C[C@H]1O` [IDV, Indinavir], the “Fen. IDV (fold)” value in series [3] (Gen. G48V V82A) is on record as >80X fold; in series [3] (Gen. I84V L90M), 20X fold; in [3] (Gen. K20R E35D M36I I54V V82T), 10X fold; in [3] (Gen. L10R M46I L63P V82T) it was 10X fold; in series [3] (Gen. V82F L90M), >80X fold.

For the compound `O=C1Nc2ccc(Cl)cc2[C@@](C#CC2CC2)(C(F)(F)F)O1` [EFV, Efavirenz], the “Fen. EFV (fold)” value is on record as >80X fold in series [4] (Gen. K101D K103N); >80X fold in series [4] (Gen. K103N Y181C); >80X fold in series [4] (Gen. L100I K103N); >80X fold in series [5] (Gen. K103N V108D); >80X fold in series [5] (Gen. K103N); 20X fold in series [5] (Gen. Y181C).

On to `CC(C)(C)NC(=O)[C@@H]1C[C@@H]2CCCC[C@@H]2CN1C[C@@H](O)[C@H](Cc1ccccc1)NC(=O)[C@H](CC(N)=O)NC(=O)c1ccc2ccccc2n1` [SQV, Saquinavir], for which the “Fen. SQV (fold)” value in series [6] (Gen. G48V I84V A74V L90M) is 40X fold; in [6] (Gen. G48V V82A), >80X fold; in series [6] (Gen. I84V L90M), >80X fold; in series [6] (Gen. M46I G48V L63P L90M), 20X fold; in series [6] (Gen. V82A L90M), 20X fold.

Turning to `Cc1c(O)cccc1C(=O)N[C@@H](CSc1ccccc1)[C@H](O)CN1C[C@H]2CCCC[C@H]2C[C@H]1C(=O)NC(C)(C)C` [NFV, Nelfinavir], the “Fen. NFV (fold)” value in series [7] (Gen. D30N A71V) is reported as 30X fold; in series [7] (Gen. D30N M46V A71V), 30X fold; in series [7] (Gen. G48V V92A), >80X fold; in series [7] (Gen. V82F L90M) it was >80X fold; in [8] (Gen. D30N) it was 30X fold; in series [8] (Gen. V82A) it was 20X fold.

Turning to `Cc1cn([C@H]2C[C@H](N=[N+]=[N-])[C@@H](CO)O2)c(=O)[nH]c1=O` [AZT, Zidovudine], the “Fen AZT (fold)” value in series [9] (Gen. D67N K70R T215F K219Q) is given as 20X fold; in series [9] (Gen. D 67 Ns K 70N T215F K219Q) it was >80X fold; in [9] (Gen. K70R T215F K219Q), 20X fold; in [9] (Gen. M41I M184V L210W R221K T215Y) it was 20X fold; in [9] (Gen. M41I T215Y), 40X fold; in [9] (Gen. M41L D67N K70RM 184V T215F), >80X fold. Also, in [9] (Gen. M41LD 76N K70R T215Y), the “Fen AZT (fold)” value is given as >80X fold. Moreover, the “Fen. AZT (fold)” value is 40X fold in [10] (Gen D67N K70R M184V T215Y); >80X fold in series [10] (Gen D67N K70R T215F K70R); 20X fold in series [10] (Gen K70R T215F K219Q); 20X fold in series [10] (Gen M4IL M184V L210W R211KL 214F T215Y); 40X fold in series [10] (Gen M41I T215F); >80X fold in [10] (Gen M41L D67N K70R M184V T215Y). Besides, the “Fen. AZT (fold)” value in series [10] (Gen M41L D67N K70R T215Y) is given as >80X fold. Besides, the negative events result in the series with HIV (hydroxychloroquine 800 mg/day, AZT 500 mg/day) is on record as “no negative events were observed”. For the same compound, in the series with HIV (AZT 500 mg/day (n=37)), the “patients with an increase of the plasmatic viremia at the end of the treatment” value is 8 patients.

`Cc1ccnc2c1NC(=O)c1cccnc1N2C1CC1` [NVP, Nevirapine]: the “Fen. NVP (fold)” value in series [11] (Gen. G190E), in series [11] (Gen. V106A), in series [12] (Gen. K103N) and in series [12] (Gen. Y181C) was >80X fold throughout.

(Values after US20040006103A1, “Use of chloroquine, hydroxychloroquine and 4 amino-quinolinic derivatives to obtain a drug for the anti retroviral therapy, active towards HIV sensitive strains and towards HIV strains which are resistant to both nucleosidic and non-nucleosidic reverse transcriptase inhibitors and to proteases …” (VALPHARMA S.A., priority 2002, published 2004).)
